Measurements as given in patent publication EP0980535B1, “PHOTOCHROMIC COMPOSITIONS, PHOTOCHROMIC COMPOUNDS (CO)POLYMER MATRICES” (Corning S.A., priority 1997, dated 1998).

Assay: Photochromic properties of the compound in the (co)polymer matrix under xenon lamp exposure
Format: physicochemical
Conditions: for color exhibited: color of the photochromic compound; for λmax (nm): same conditions as compound (I): 0.05% by weight in matrix; for T0 (%) / DO induced: same conditions as compound (I); for DO induced: xenon lamp (40.000 lux)
Description: The matrix is based on a short-chain (meth)acrylate difunctional monomer and a long-chain alkenic difunctional monomer. Used at 0.05% by weight within the matrix (conditioned under 2 mm thickness), the compound has led to the results shown in the Table below.
Compounds C1, C2, C3, other naphthopyrans according to the application WO-A-94 22850, are identified by their developed formula in the Example part of the text. All compounds (II), C1, C2, C3 were tested under the same conditions as those indicated above with reference to compound (I).
The half-time of fading : t1/2, expressed in seconds is specified below for each one of the compounds. This parameter characterizes the kinetics of the return to the initial state (after darkening)(see its exact definition given earlier in the present text with reference to the Table grouping the properties of compound (I)).

[1] = 0.05% by weight within the matrix, 2 mm thickness
[2] = optical density after minus before exposure under a xenon lamp (40.000 lux), 0.05% by weight in matrix, 2 mm
[3] = transmission before exposure, 0.05% by weight in matrix, 2 mm

Row | SMILES | λmax 1 [1] | λmax 2 [1] | color exhibited | DOinduced** at 489 nm [2] | DOinduced** at 588 nm [2] | T0* at 489 nm [3] | T0* at 588 nm [3] | λmax (nm) (2 mm) | T0 (%) (transmission before exposure) | DO induced
1 | COc1ccc(C2(c3ccc(N(C)C)cc3)C=Cc3c(C)cc4c(OC)cc(OC)cc4c3O2)cc1 (centres unmarked) [Compound (I), 2-(p-dimethylaminophenyl)-2-(p-methoxyphenyl)-5-methyl-7,9-dimethoxy-[2H]-naphtho[1,2-b]pyran] | 489 nm | 588 nm | violet | 0.58 | 0.94 | 85% | 86% |  |  | 
2 | COc1ccc(C2(c3ccccc3)C=Cc3c(cc(N4CCOCC4)c4ccccc34)O2)cc1 (centres unmarked) [Compound (II), 3-(p-methoxyphenyl)-3-phenyl-6-morpholino-3H-naphtho-[2,1-b]pyran] |  |  | yellow |  |  |  |  | 439 nm | 79% | 1.65

Second part, the molecule after the results:

Row | λmax 1 [1] | λmax 2 [1] | color exhibited | DOinduced** at 489 nm [2] | DOinduced** at 588 nm [2] | T0* at 489 nm [3] | T0* at 588 nm [3] | λmax (nm) (2 mm) | T0 (%) (transmission before exposure) | DO induced | SMILES
3 |  |  |  |  |  |  |  | 430 nm | 68% | 1.60 | COc1ccc(C2(c3ccc(C(F)(F)F)cc3)C=Cc3c(cc(N4CCOCC4)c4ccccc34)O2)cc1 (centres unmarked) [Compound C2, reference compound]
4 |  |  |  |  |  |  |  | 456 nm | 74% | 1.37 | COc1ccc(C2(c3ccc(OC)cc3)C=Cc3c(cc(N4CCOCC4)c4ccccc34)O2)cc1 [Compound C1, reference compound]
5 |  |  |  |  |  |  |  | 430 nm | 79% | 1.77 | COc1ccc(C2(c3ccccc3)C=Cc3c(cc(N4CCCCC4)c4ccccc34)O2)cc1 (centres unmarked) [Compound C3, reference compound]
